Article PMC2813863, “In Vivo Evaluation of α7 Nicotinic Acetylcholine Receptor Agonists [^11C]A-582941 and [^11C]A-844606 in Mice and Conscious Monkeys” (PLoS ONE, 2010)
“And” between values parts separate entries of the source, which are not always exact repeats. Identical values can stand only once. Like-named read-outs stand apart in the source and are kept apart here.

Columns and labels:
[1] = type: in vivo, rhesus monkeys (Macaca mulatta); details: monkey
Procedure: Blood samples were centrifuged to separate the plasma, weighed, and subjected to radioactivity measurement. For metabolite analysis, methanol was added to some plasma samples, the resulting solutions were centrifuged, and the supernatants were developed with TLC plates (AL SIL G/UV; Whatman, Kent, UK) using a mobile phase of dichloromethane/diethyl ether/ethanol/triethylamine (20/20/2/2, v/v/v/v). At each sampling time point, the ratio of radioactivity in the unmetabolized fraction to that in the total plasma (metabolite plus unmetabolite) was determined using a phosphoimaging plate (BAS-1500 MAC; Fuji Film Co., Tokyo, Japan). The pTACs corrected for metabolite were obtained. The tTACs in each region of interest (ROI) in the brain were calculated as the %ID/ml or as a standardized uptake value (SUV), (activity/ml tissue)/(injected activity/g body weight). Using the tTACs and the metabolite-corrected pTAC, the V T for each tracer was evaluated by Logan graphical analysis.

[2] = target: α7 nAChRs (Mus musculus, UniProt P49582); details: in vivo
Procedure: In the other group of mice, a blocking experiment to determine the α7 nAChRs-specific regional brain uptake of the tracers was carried out. Each tracer (2 MBq/0.055–0.096 nmol) was co-injected with each of the following blockers into mice, and 15 ([^11C]A-582941) or 30 ([^11C]A-844606) min later the mice were killed (n = 5) and the tissue uptake of ^11C was expressed as the %ID/g. […] Each blocker was dissolved in 1N HCl to 40 mg/ml and diluted up to 0.4 mg/ml with saline. The co-injected dose was 1 mg/kg. In the control mice the same amount of 0.01 N HCl in saline was co-injected.

[3] = type: in vivo, mice; details: mice, i.v.
Procedure: Each tracer was intravenously injected into mice, and then the animals were killed by cervical dislocation at 1, 5, 15, 30 and 60 min after injection (n = 4). The body weight of the mice was 34.7±1.2 g. The injected doses of tracers were 2 MBq/0.049–0.051 nmol. Blood was collected by heart puncture and tissues were harvested. The carbon-11 in the samples was counted with an auto-gamma-counter (LKB Wallac Compu-gamma 1282CS, Turku, Finland) and the tissues were weighed. The tissue uptake of carbon-11 was expressed as the %ID/g.

Sequence of α7 nAChRs (P49582 23-502): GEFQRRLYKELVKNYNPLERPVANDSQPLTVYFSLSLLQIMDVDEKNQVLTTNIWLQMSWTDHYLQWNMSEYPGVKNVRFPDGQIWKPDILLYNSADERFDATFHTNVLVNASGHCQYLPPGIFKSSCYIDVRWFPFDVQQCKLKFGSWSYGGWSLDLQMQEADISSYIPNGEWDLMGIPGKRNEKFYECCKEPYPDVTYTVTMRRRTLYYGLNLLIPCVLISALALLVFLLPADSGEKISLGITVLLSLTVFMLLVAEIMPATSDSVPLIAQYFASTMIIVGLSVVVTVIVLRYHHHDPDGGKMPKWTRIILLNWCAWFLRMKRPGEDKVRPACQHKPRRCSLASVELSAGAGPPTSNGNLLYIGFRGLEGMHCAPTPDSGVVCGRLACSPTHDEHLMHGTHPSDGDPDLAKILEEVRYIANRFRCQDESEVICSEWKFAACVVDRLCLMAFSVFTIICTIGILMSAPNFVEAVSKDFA

For `[11CH3]N1CC2CN(c3ccc(-c4ccccc4)nn3)CC2C1` (stereo not shown) [[^11C]A-582941, 2-[^11C]Methyl-5-[6-phenylpyridazine-3-yl]octahydropyrrolo[3,4-c]pyrrole], the “percentage of the unchanged form in plasma” value ([1]; SSR180711-blocking condition (n = 1), 0.3 min) was 93.2%, the “percentage of the unchanged form in plasma” value ([1]; SSR180711-blocking condition (n = 1), 0.7 min) was 93.9% and the “percentage of the unchanged form in plasma” value ([1]; SSR180711-blocking condition (n = 1), 1.1 min) was 93.0%. For the same compound, the “percentage of the unchanged form in plasma” value ([1]; SSR180711-blocking condition (n = 1), 6.0 min) was 74.2%, the “percentage of the unchanged form in plasma” value ([1]; SSR180711-blocking condition (n = 1), 10 min) was 56.7% and the “percentage of the unchanged form in plasma” value ([1]; SSR180711-blocking condition (n = 1), 30 min) was 28.3%. The “percentage of the unchanged form in plasma” value ([1]; SSR180711-blocking condition (n = 1), 45 min) was 23.2%, the “percentage of the unchanged form in plasma” value ([1]; SSR180711-blocking condition (n = 1), 60 min) was 20.4% and the “percentage of the unchanged form in plasma” value ([1]; SSR180711-blocking condition (n = 1), 75 min) was 22.2%. The “percentage of the unchanged form in plasma” value ([1]; SSR180711-blocking condition (n = 1), 90 min) was 15.9%, the “percentage of the unchanged form in plasma” value ([1]; baseline, 10 min) was 71.6±4.1% and the “percentage of the unchanged form in plasma” value ([1]; baseline, 30 min) was 42.8±7.8% and 42.8%. The “percentage of the unchanged form in plasma” value ([1]; baseline, 45 min) was 34.0±7.4%, the “percentage of the unchanged form in plasma” value ([1]; baseline, 60 min) was 26.9±5.3% and the “percentage of the unchanged form in plasma” value ([1]; baseline, 75 min) was 23.0±3.4%. The “percentage of the unchanged form in plasma” value ([1]; baseline, 90 min) was 19.2±2.6%, the “% Injected dose/g tissue, Blood” value [2] was 0.88±0.10 % Injected dose/g tissue and the “% Injected dose/g tissue, Cerebellum” value [2] was 3.71±0.19 % Injected dose/g tissue. The “% Injected dose/g tissue, Cerebral cortex” value [2] was 4.59±0.25 % Injected dose/g tissue, the “% Injected dose/g tissue, Hippocampus” value [2] was 4.05±0.52 % Injected dose/g tissue and the “% Injected dose/g tissue, Hypothalamus” value [2] was 3.51±0.60 % Injected dose/g tissue. For the same compound, the “% Injected dose/g tissue, Medulla oblongata” value [2] was 4.23±0.08 % Injected dose/g tissue, the “% Injected dose/g tissue, Midbrain” value [2] was 4.09±0.52 % Injected dose/g tissue and the “% Injected dose/g tissue, Striatum” value [2] was 4.03±0.45 % Injected dose/g tissue. For the same compound, the “% Injected dose/g tissue, Whole brain” value [2] was 4.23±0.23 % Injected dose/g tissue, the “time of peak radioactivity in the brain” value [3] was 5 min and the “% Injected dose/g tissue, Blood” value ([3]; 1 min after injection) was 1.84±0.43 % Injected dose/g tissue. The “% Injected dose/g tissue, Brain” value ([3]; 1 min after injection) was 2.61±0.33 % Injected dose/g tissue, the “% Injected dose/g tissue, Heart” value ([3]; 1 min after injection) was 4.33±0.82 % Injected dose/g tissue and the “% Injected dose/g tissue, Kidney” value ([3]; 1 min after injection) was 13.87±1.58 % Injected dose/g tissue. The “% Injected dose/g tissue, Liver” value ([3]; 1 min after injection) was 3.59±0.45 % Injected dose/g tissue, the “% Injected dose/g tissue, Lung” value ([3]; 1 min after injection) was 18.09±4.18 % Injected dose/g tissue and the “% Injected dose/g tissue, Muscle” value ([3]; 1 min after injection) was 2.02±0.34 % Injected dose/g tissue. For the same compound, the “% Injected dose/g tissue, Pancreas” value ([3]; 1 min after injection) was 4.65±0.76 % Injected dose/g tissue, the “% Injected dose/g tissue, S. intestine” value ([3]; 1 min after injection) was 3.13±0.51 % Injected dose/g tissue and the “% Injected dose/g tissue, Spleen” value ([3]; 1 min after injection) was 2.70±0.31 % Injected dose/g tissue. For the same compound, the “% Injected dose/g tissue, Blood” value ([3]; 5 min after injection) was 0.89±0.04 % Injected dose/g tissue, the “% Injected dose/g tissue, Brain” value ([3]; 5 min after injection) was 3.92±0.49 % Injected dose/g tissue and the “% Injected dose/g tissue, Heart” value ([3]; 5 min after injection) was 2.16±0.13 % Injected dose/g tissue. For the same compound, the “% Injected dose/g tissue, Kidney” value ([3]; 5 min after injection) was 8.77±0.79 % Injected dose/g tissue, the “% Injected dose/g tissue, Liver” value ([3]; 5 min after injection) was 10.52±0.69 % Injected dose/g tissue and the “% Injected dose/g tissue, Lung” value ([3]; 5 min after injection) was 12.52±8.59 % Injected dose/g tissue. For the same compound, the “% Injected dose/g tissue, Muscle” value ([3]; 5 min after injection) was 1.40±0.16 % Injected dose/g tissue, the “% Injected dose/g tissue, Pancreas” value ([3]; 5 min after injection) was 7.47±0.54 % Injected dose/g tissue and the “% Injected dose/g tissue, S. intestine” value ([3]; 5 min after injection) was 4.49±0.60 % Injected dose/g tissue. For the same compound, the “% Injected dose/g tissue, Spleen” value ([3]; 5 min after injection) was 5.53±0.38 % Injected dose/g tissue, the “% Injected dose/g tissue, Blood” value ([3]; 15 min after injection) was 0.76±0.06 % Injected dose/g tissue and the “% Injected dose/g tissue, Brain” value ([3]; 15 min after injection) was 3.63±0.28 % Injected dose/g tissue. For the same compound, the “% Injected dose/g tissue, Heart” value ([3]; 15 min after injection) was 1.72±0.17 % Injected dose/g tissue, the “% Injected dose/g tissue, Kidney” value ([3]; 15 min after injection) was 6.02±0.97 % Injected dose/g tissue and the “% Injected dose/g tissue, Liver” value ([3]; 15 min after injection) was 12.38±1.68 % Injected dose/g tissue. The “% Injected dose/g tissue, Lung” value ([3]; 15 min after injection) was 7.02±0.10 % Injected dose/g tissue, the “% Injected dose/g tissue, Muscle” value ([3]; 15 min after injection) was 1.06±0.09 % Injected dose/g tissue and the “% Injected dose/g tissue, Pancreas” value ([3]; 15 min after injection) was 5.80±0.80 % Injected dose/g tissue. The “% Injected dose/g tissue, S. intestine” value ([3]; 15 min after injection) was 4.61±0.60 % Injected dose/g tissue, the “% Injected dose/g tissue, Spleen” value ([3]; 15 min after injection) was 5.13±0.72 % Injected dose/g tissue and the “% Injected dose/g tissue, Blood” value ([3]; 30 min after injection) was 0.64±0.06 % Injected dose/g tissue. The “% Injected dose/g tissue, Brain” value ([3]; 30 min after injection) was 2.68±0.29 % Injected dose/g tissue, the “% Injected dose/g tissue, Heart” value ([3]; 30 min after injection) was 1.39±0.10 % Injected dose/g tissue and the “% Injected dose/g tissue, Kidney” value ([3]; 30 min after injection) was 4.83±0.77 % Injected dose/g tissue. The “% Injected dose/g tissue, Liver” value ([3]; 30 min after injection) was 9.87±0.80 % Injected dose/g tissue, the “% Injected dose/g tissue, Lung” value ([3]; 30 min after injection) was 6.06±0.31 % Injected dose/g tissue and the “% Injected dose/g tissue, Muscle” value ([3]; 30 min after injection) was 0.82±0.07 % Injected dose/g tissue. The “% Injected dose/g tissue, Pancreas” value ([3]; 30 min after injection) was 4.68±0.51 % Injected dose/g tissue, the “% Injected dose/g tissue, S. intestine” value ([3]; 30 min after injection) was 5.33±1.20 % Injected dose/g tissue and the “% Injected dose/g tissue, Spleen” value ([3]; 30 min after injection) was 3.64±0.14 % Injected dose/g tissue. For the same compound, the “% Injected dose/g tissue, Blood” value ([3]; 60 min after injection) was 0.57±0.05 % Injected dose/g tissue, the “% Injected dose/g tissue, Brain” value ([3]; 60 min after injection) was 1.85±0.10 % Injected dose/g tissue and the “% Injected dose/g tissue, Heart” value ([3]; 60 min after injection) was 1.02±0.08 % Injected dose/g tissue. For the same compound, the “% Injected dose/g tissue, Kidney” value ([3]; 60 min after injection) was 3.74±0.20 % Injected dose/g tissue, the “% Injected dose/g tissue, Liver” value ([3]; 60 min after injection) was 7.24±0.74 % Injected dose/g tissue and the “% Injected dose/g tissue, Lung” value ([3]; 60 min after injection) was 4.13±0.15 % Injected dose/g tissue. For the same compound, the “% Injected dose/g tissue, Muscle” value ([3]; 60 min after injection) was 0.66±0.05 % Injected dose/g tissue, the “% Injected dose/g tissue, Pancreas” value ([3]; 60 min after injection) was 3.69±0.42 % Injected dose/g tissue and the “% Injected dose/g tissue, S. intestine” value ([3]; 60 min after injection) was 4.53±1.21 % Injected dose/g tissue. For the same compound, the “% Injected dose/g tissue, Spleen” value ([3]; 60 min after injection) was 2.89±0.90 % Injected dose/g tissue.
